Data reported in patent US20260034094A1, “COMPOSITIONS AND METHODS FOR INDUCING FERROPTOSIS” (Kojin Therapeutics, Inc., priority 2022, published 2026).
Like-named read-outs stand apart in the source and are kept apart here.

Key:
RKN cells = assay: RKN cell profiling assay (cell viability, CellTiter-Glo); type: cell-based
Method in brief: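 Viability read by CellTiter-Glo luminescence after 96 h compound exposure (0.5% DMSO final) of cells plated at 1,000/well in 10% FBS F-12 and allowed 24 h attachment. Four-parameter fits gave EC50; rescue arms used ferrostatin-1, 1.5 μM, present from seeding.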

human recombinant GCL = human recombinant GCL (Homo sapiens (Human), UniProt P48506); assay: GCL enzyme profiling assay (ADP-Glo luminescence); type: biochemical; conditions: read-out: GCL IC50
human recombinant GCL, sequence (P48506 whole entry): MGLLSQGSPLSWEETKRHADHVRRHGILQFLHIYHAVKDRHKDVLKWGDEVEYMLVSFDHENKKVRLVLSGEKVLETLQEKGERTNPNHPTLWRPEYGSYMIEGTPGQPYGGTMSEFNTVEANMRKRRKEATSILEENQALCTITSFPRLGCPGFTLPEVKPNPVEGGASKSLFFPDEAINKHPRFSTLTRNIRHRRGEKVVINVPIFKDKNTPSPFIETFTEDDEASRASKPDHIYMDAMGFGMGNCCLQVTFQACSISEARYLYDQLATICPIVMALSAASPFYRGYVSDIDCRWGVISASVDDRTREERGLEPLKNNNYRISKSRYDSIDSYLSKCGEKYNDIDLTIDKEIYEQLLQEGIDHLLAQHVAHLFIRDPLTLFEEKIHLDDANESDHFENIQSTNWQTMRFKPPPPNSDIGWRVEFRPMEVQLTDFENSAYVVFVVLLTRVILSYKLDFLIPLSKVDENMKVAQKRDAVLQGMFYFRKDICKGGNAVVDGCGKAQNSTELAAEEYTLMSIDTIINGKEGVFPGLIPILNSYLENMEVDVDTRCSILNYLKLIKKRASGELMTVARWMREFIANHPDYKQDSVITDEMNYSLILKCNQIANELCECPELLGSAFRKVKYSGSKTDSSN
Method in brief: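 IC50 fitted by four-parameter logistic to luminescent ADP formation (ADP-Glo). Reaction at room temperature in HEPES pH 7.5 with 30 mM MgCl2, 0.2% F-127, 1% DMSO; 5 nM GCL and 0.6 mM ATP preincubated 1 h before adding 1 mM glutamate plus 1.2 mM α-aminobutyrate for 2 h.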

[1] = 96 h, 96 h exposure, read-out: Cell Killing EC50
[2] = human recombinant GCL 5 nM, 1 h preincubation with ATP
[3] = cell viability, read-out: Cell Killing EC50

Compound	IC50 (human recombinant GCL; [2]) [µM]	IC50 (human recombinant GCL; human recombinant GCL, ADP-Glo) [µM]	EC50 (RKN cells; [1]) [mM]	EC50 (RKN cells; [3]) [mM]	further results
COCCCCS(=N)(=O)CC[C@H](N)C(=O)OC (stereo partly drawn) [Compound 76]	20 to 2000	–	≥ 1	–	–
N=[S@SP2](=O)(CCC(N)C(=O)O)CCC(O)(c1ccc(N[S@SP3](=O)(=O)c2ccccc2)cc1)C(F)(F)F (stereo not drawn) [compound 507]	–	≤ 20	–	≥ 1	–
COC(=O)[C@@H](N)CCS(=N)(=O)CCC1CCCC1 (stereo partly drawn) [Compound 74]	20 to 2000	–	< 1	–	–
COC(=O)[C@@H](N)CCS(=N)(=O)CCc1nnn[nH]1 (stereo partly drawn) [Compound 69, (2S)-methyl 4-(2-(1H-tetrazol-5-yl)ethylsulfonimidoyl)-2-aminobutanoate]	> 2000	–	≥ 1	–	–
CCC(CS(=N)(=O)CC[C@H](N)C(=O)O)c1ccccc1C(F)(F)F (stereo partly drawn) [Compound 47]	> 2000	–	≥ 1	–	–
CCCCS(=N)(=O)CC[C@H](N)C(N)=O (stereo partly drawn) [Compound 105, (2S)-2-amino-4-(butylsulfonimidoyl)butanamide]	> 2000	–	≥ 1	–	–
C[C@@](O)(CCS(=N)(=O)CC[C@H](N)C(=O)O)C(F)(F)F (single isomer, unassigned) [Compound 323]	–	> 2000	–	≥ 1	–
COc1ccccc1CCS(=N)(=O)CC[C@H](N)C(=O)O (stereo partly drawn) [Compound 20]	20 to 2000	–	≥ 1	–	–
N=S(=O)(CCC(n1ncc(-c2ccccc2)n1)C(F)(F)F)CC[C@H](N)C(=O)O (stereo partly drawn) [Compound 409]	–	≤ 20	–	< 1	–
N=S(=O)(CCc1cccc(F)c1F)CC[C@H](N)C(=O)O (stereo partly drawn) [Compound 16]	≤ 20	–	< 1	–	–
CC(C)(CCS(=N)(=O)CC[C@H](N)C(=O)O)c1ccccc1F (stereo partly drawn) [Compound 59]	≤ 20	–	< 1	–	–
N=[S@@](=O)(CC[C@H](N)C(=O)O)CC[C@](O)(c1ccccc1)C(F)(F)F [Compound 348, (S)-2-amino-4-((R,3S)-4,4,4-trifluoro-3-hydroxy-3-phenylbutylsulfonimidoyl)butanoic acid]	–	≤ 20	–	< 1	–
N=S(=O)(CC[C@H](N)C(=O)O)C[C@H](O)c1ccccc1 (stereo partly drawn) [Compound 46]	20 to 2000	–	≥ 1	–	–
N=S(=O)(CCC(C1CCC1)C(F)(F)F)CC[C@H](N)C(=O)O (stereo partly drawn) [Compound 383]	–	≤ 20	–	≥ 1	–
CCOc1cccc(-c2ccc(C(O)(CCS(=N)(=O)CC[C@H](N)C(=O)O)C(F)(F)F)cc2)c1 (stereo partly drawn) [Compound 451]	–	≤ 20	–	< 1	–
COc1cncc(-c2ccc(C(CCS(=N)(=O)CC[C@H](N)C(=O)O)C(F)(F)F)cc2)c1 (stereo partly drawn) [Compound 242]	–	≤ 20	–	≥ 1	–

Compound	IC50 (human recombinant GCL; [2]) [µM]	IC50 (human recombinant GCL; human recombinant GCL, ADP-Glo) [µM]	EC50 (RKN cells; [1]) [mM]	EC50 (RKN cells; [3]) [mM]	further results
N=S(=O)(CC[C@H](N)C(=O)O)CCC(O)(c1ccc(-c2ccc3ccc(=O)oc3c2)cc1)C(F)(F)F (stereo partly drawn) [Compound 425, (2S)-2-amino-4-(4,4,4-trifluoro-3-hydroxy-3-(4-(2-oxo-2H-chromen-7-yl)phenyl)butylsulfonimidoyl)butanoic acid]	–	≤ 20	–	≥ 1	–
CC(C)(C)CCS(=N)(=O)CC[C@H](N)C(=O)NCCC(C)(C)O (stereo partly drawn) [Compound 125]	> 2000	–	< 1	–	–
N=S(=O)(CCC1CCCC1(F)F)CC[C@H](N)C(=O)O (stereo partly drawn) [Compound 180]	≤ 20	–	≥ 1	–	–
CCCCNC(=O)[C@@H](N)CCS(=N)(=O)CCC(C)(C)C (stereo partly drawn) [Compound 100, (2S)-2-amino-N-butyl-4-(3,3-dimethylbutylsulfonimidoyl)butanamide]	> 2000	–	< 1	–	–
N=S(=O)(CC[C@H](N)C(=O)O)CCC(O)(c1ccc(-c2ccc(F)cc2F)cn1)C(F)(F)F (stereo partly drawn) [Compound 477]	–	≤ 20	–	< 1	–
N=S(=O)(CC[C@H](N)C(=O)O)CCC(O)(c1ccc(-c2ccccc2O)cc1)C(F)(F)F (stereo partly drawn) [Compound 434]	–	≤ 20	–	< 1	–
N=S(=O)(CCc1cccc(F)c1)CC[C@H](N)C(=O)O (stereo partly drawn) [Compound 24]	≤ 20	–	≥ 1	–	–
CNC(=O)C1(CCS(=N)(=O)CC[C@H](N)C(=O)O)CCC1 (stereo partly drawn) [Compound 192]	20 to 2000	–	≥ 1	–	–
N=S(=O)(CCCCc1ccccc1)CC[C@H](N)C(=O)O (stereo partly drawn) [Compound 52]	20 to 2000	–	≥ 1	–	–
N=S(=O)(CCCC(F)(F)F)CC[C@H](N)C(=O)Nc1ccccc1 (stereo partly drawn) [Compound 132]	> 2000	–	< 1	–	–
N[C@@H](CCS(=O)(=O)CCC(O)(c1ccccn1)C(F)(F)F)C(=O)O (stereo partly drawn) [Compound 351, (2S)-2-amino-4-((4,4,4-trifluoro-3-hydroxy-3-(pyridin-2-yl)butyl)sulfonyl)butanoic acid]	–	≤ 20	–	≥ 1	–
N=[S@@](=O)(CC[C@H](N)C(=O)O)CCC1(c2ccccc2)CCC1 (single isomer, unassigned) [Compound 392]	–	≤ 20	–	< 1	–
N=[S@](=O)(CC[C@H](c1ccccc1)C(F)(F)F)CC[C@H](N)C(=O)O [Compound 60]	≤ 20	–	< 1	–	–
CCCCS(=N)(=O)CC[C@H](N)C#N (stereo partly drawn) [Compound 199, (2S)-2-amino-4-(butylsulfonimidoyl)butanenitrile]	> 2000	–	≥ 1	–	–
N=S(=O)(CC[C@H](N)C(=O)O)CCC(O)(c1cc(-c2ccccc2)sn1)C(F)(F)F (stereo partly drawn) [Compound 376]	–	≤ 20	–	< 1	–

Continued, in another order:

IC50 (human recombinant GCL; [2]) [µM]	IC50 (human recombinant GCL; human recombinant GCL, ADP-Glo) [µM]	Compound	EC50 (RKN cells; [1]) [mM]	EC50 (RKN cells; [3]) [mM]	further results
20 to 2000	–	N=S(=O)(CC[C@H](N)C(=O)O)CC(=O)C1CCCC1 (stereo partly drawn) [Compound 136, (2S)-2-amino-4-(2-cyclopentyl-2-oxoethylsulfonimidoyl)butanoic acid]	≥ 1	–	–
–	≤ 20	N=S(=O)(CCC(Cc1ccccc1)C(F)(F)F)CC[C@H](N)C(=O)O (stereo partly drawn) [Compound 292, (2S)-2-amino-4-(3-benzyl-4,4,4-trifluorobutylsulfonimidoyl)butanoic acid]	–	≥ 1	–
–	20 to 2000	N=S(=O)(CCC(n1ccc(-c2cccnc2)n1)C(F)(F)F)CC[C@H](N)C(=O)O (stereo partly drawn) [Compound 414]	–	≥ 1	–
> 2000	–	CC(C)(C)[C@@H](N)CS(=N)(=O)CC[C@H](N)C(=O)O (stereo partly drawn) [Compound 147]	≥ 1	–	–
–	≤ 20	N=S(=O)(CC[C@H](N)C(=O)O)CCC(O)(c1ccc(Oc2ccccc2)cc1)C(F)(F)F (stereo partly drawn) [Compound 334]	–	< 1	–
–	20 to 2000	N=S(=O)(CC[C@H](N)C(=O)O)CCC(O)(c1ncc2ccccc2n1)C(F)(F)F (stereo partly drawn) [Compound 374]	–	< 1	–
20 to 2000	–	CC#CCS(=N)(=O)CC[C@H](N)C(=O)O (stereo partly drawn) [Compound 144]	≥ 1	–	–
20 to 2000	–	N=S(=O)(CCOC(F)F)CC[C@H](N)C(=O)O (stereo partly drawn) [Compound 170]	≥ 1	–	–
20 to 2000	–	N=S(=O)(CC[C@H](N)C(=O)O)CC[C@H](O)c1ccccc1 (stereo partly drawn) [Compound 54]	≥ 1	–	–
≤ 20	–	COC(CC[S@](=N)(=O)CC[C@H](N)C(=O)O)C(F)(F)F (stereo partly drawn) [Compound 179]	–	–	EC50 (RKN cells; 96 h exposure, read-out: Cell Killing EC50): < 1 mM
–	≤ 20	N=S(=O)(CC[C@H](N)C(=O)O)CCC(O)(c1ccc(-c2ccc(OC(F)(F)F)cc2O)cc1)C(F)(F)F (stereo partly drawn) [Compound 458]	–	< 1	–
> 2000	–	CCCCNC(=O)[C@@H](N)CCS(=N)(=O)CCCC(F)(F)F (stereo partly drawn) [Compound 131]	< 1	–	–
–	≤ 20	N=[S@SP2](=O)(CCC(N)C(=O)O)CCC12CC(c3ccc(C(F)(F)F)cc3)(C1)C2(F)F (stereo not drawn) [compound 500]	–	≥ 1	–
–	≤ 20	N=S(=O)(CC[C@H](N)C(=O)O)CCC(O)(c1ccc(Oc2ccc(Cl)cc2Cl)cn1)C(F)(F)F (stereo partly drawn) [Compound 380]	–	< 1	–
–	≤ 20	N=S(=O)(CC[C@H](N)C(=O)O)CCC(O)(c1cc(-c2ccccc2)on1)C(F)(F)F (stereo partly drawn) [Compound 378]	–	< 1	–
–	20 to 2000	N=S(=O)(CC[C@H](N)C(=O)O)CCC1(c2ccccn2)CCC1 (stereo partly drawn) [Compound 387, (2S)-2-amino-4-(2-(1-(pyridin-2-yl)cyclobutyl)ethylsulfonimidoyl)butanoic acid]	–	< 1	–
> 2000	–	CC(C)(N)CCS(=N)(=O)CC[C@H](N)C(=O)O (stereo partly drawn) [Compound 183]	≥ 1	–	–
20 to 2000	–	N=S(=O)(CC[C@H](N)C(=O)O)CC(O)C1CCCC1 (stereo partly drawn) [Compound 137]	< 1	–	EC50 (RKN cells; 96 h, 96 h exposure, read-out: Cell Killing EC50 (mM), individual values in parentheses): 1.47 mM; EC50 (RKN cells; 96 h exposure, read-out: Cell Killing EC50 (mM), individual values in parentheses): 0.92 mM
–	20 to 2000	Cc1cc(F)ccc1-c1cnc(C(O)(CCS(=N)(=O)CC[C@H](N)C(=O)O)C(F)(F)F)nc1 (stereo partly drawn) [Compound 473]	–	< 1	–
20 to 2000	–	N=S(=O)(CCc1cccc(C(F)(F)F)c1)CC[C@H](N)C(=O)O (stereo partly drawn) [Compound 3]	≥ 1	–	–
20 to 2000	–	N=S(=O)(CCc1ccccc1F)CC[C@H](N)C(=O)O (stereo partly drawn) [Compound 23]	≥ 1	–	–
20 to 2000	–	N=S(=O)(CC[C@H](N)C(=O)O)CCC1(C(N)=O)CCC1 (stereo partly drawn) [Compound 188, (2S)-2-amino-4-(2-(1-carbamoylcyclobutyl)ethylsulfonimidoyl)butanoic acid]	< 1	–	–
–	≤ 20	N=S(=O)(CCC(n1ccc(-c2ccccc2)n1)C(F)(F)F)CC[C@H](N)C(=O)O (stereo partly drawn) [Compound 416]	–	≥ 1	–
–	≤ 20	N=S(=O)(CC[C@H](N)C(=O)O)CCC(O)(c1ccc(C(F)(F)F)cc1)C(F)(F)F (stereo partly drawn) [Compound 338]	–	≥ 1	–
20 to 2000	–	Cc1cccc(C)c1CCS(=N)(=O)CC[C@H](N)C(=O)O (stereo partly drawn) [Compound 32]	≥ 1	–	–
